Columns and labels:
Assay in all cases: relative viability (nuclei count vs DMSO), 5 days (fraction); higher = more cells survive
R406 + AZD7762 = compound: COc1cc(Nc2ncc(F)c(Nc3ccc4c(n3)NC(=O)C(C)(C)O4)n2)cc(OC)c1OC [R406] + NC(=O)Nc1cc(-c2cccc(F)c2)sc1C(=O)N[C@H]1CCCNC1 [AZD7762] (partner 0.2 µM)
In short: (§1)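 Values are medians from duplicate plates. Each reflects relative viability, defined as the nuclei count of treated wells over that of vehicle wells. Lung cancer cell lines in 1536-well plates were pin-tool dosed one day after seeding with one drug alone or with a fixed anchor-drug dose plus five library-drug doses (not always all listed) in √10 steps, then fixed, stained and imaged at 4× after 5 days.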

Daporinad + Phenformin = compound: O=C(/C=C/c1cccnc1)NCCCCC1CCN(C(=O)c2ccccc2)CC1 [Daporinad] + N=C(N)NC(=N)NCCc1ccccc1 [Phenformin] (partner 250 µM)
In short: as §1

R406 + Pictilisib = compound: COc1cc(Nc2ncc(F)c(Nc3ccc4c(n3)NC(=O)C(C)(C)O4)n2)cc(OC)c1OC [R406] + CS(=O)(=O)N1CCN(Cc2cc3nc(-c4cccc5[nH]ncc45)nc(N4CCOCC4)c3s2)CC1 [Pictilisib] (partner 1 µM)
In short: as §1

R406 + Trametinib = compound: COc1cc(Nc2ncc(F)c(Nc3ccc4c(n3)NC(=O)C(C)(C)O4)n2)cc(OC)c1OC [R406] + CC(=O)Nc1cccc(-n2c(=O)n(C3CC3)c(=O)c3c(Nc4ccc(I)cc4F)n(C)c(=O)c(C)c32)c1 [Trametinib] (partner 0.02 µM)
In short: as §1

Cell Line	relative viability (R406 + AZD7762; first compound 0.253 µM)	relative viability (R406 + AZD7762; first compound 0.8 µM)	relative viability (R406 + AZD7762; first compound 2.53 µM)	relative viability (R406 + AZD7762; first compound 8 µM)	relative viability (Daporinad + Phenformin; first compound 0.0005 µM)	relative viability (Daporinad + Phenformin; first compound 0.001581 µM)	relative viability (Daporinad + Phenformin; first compound 0.005 µM)	relative viability (Daporinad + Phenformin; first compound 0.01581 µM)	relative viability (R406 + Pictilisib; first compound 0.08 µM)	relative viability (R406 + Pictilisib; first compound 0.253 µM)	relative viability (R406 + Pictilisib; first compound 0.8 µM)	relative viability (R406 + Pictilisib; first compound 2.53 µM)	relative viability (R406 + Pictilisib; first compound 8 µM)	relative viability (R406 + Trametinib; first compound 0.08 µM)	relative viability (R406 + Trametinib; first compound 0.253 µM)	relative viability (R406 + Trametinib; first compound 0.8 µM)	relative viability (R406 + Trametinib; first compound 2.53 µM)	relative viability (R406 + Trametinib; first compound 8 µM)	relative viability (R406 + AZD7762; first compound 0.08 µM)
NCI-H1975	0.757	0.771	0.341	0.325	0.435	0.404	0.457	0.401	0.29	0.297	0.319	0.162	0.142	0.315	0.307	0.287	0.112	0.201	–
CAL-12T	0.641	0.695	0.714	0.637	0.523	0.613	0.296	0.188	0.296	0.575	0.457	0.193	0.185	0.343	0.351	0.378	0.312	0.175	0.531
NCI-H2342	0.53	0.476	0.433	0.392	0.62	0.61	0.595	0.546	–	–	–	–	–	0.724	0.841	0.8	0.753	0.844	0.505
HCC-44	1.01	0.995	1.03	1.18	0.255	0.189	0.233	0.182	0.569	0.647	0.611	0.526	0.335	1.04	1.1	1.12	0.984	0.966	0.974
EKVX	0.832	0.847	0.647	0.521	0.212	0.23	0.251	0.227	0.436	0.41	0.422	0.357	0.347	0.405	0.383	0.348	0.364	0.264	0.679
NCI-H1651	0.544	0.513	0.396	0.446	0.299	0.381	0.433	0.329	0.512	0.652	0.727	0.249	0.251	0.75	0.821	0.843	0.852	0.831	0.432
NCI-H1648	0.618	0.67	0.554	0.633	–	–	–	–	–	–	–	–	–	0.564	0.432	0.557	0.463	0.4	0.719
NCI-H1703	0.137	0.115	0.105	0.112	–	–	–	–	0.229	0.207	0.278	0.214	0.187	–	–	–	–	–	0.144
Calu-6	–	–	–	–	–	–	–	–	0.861	0.957	1.01	0.585	0.369	–	–	–	–	–	–
EBC-1	–	–	–	–	–	–	–	–	0.462	0.371	0.528	0.26	0.162	–	–	–	–	–	–
A-427	0.795	0.86	0.663	0.43	0.298	0.356	0.295	0.191	0.72	0.846	0.69	0.548	0.546	0.755	0.745	0.857	0.62	0.541	0.832

Reference: the supplement of paper PMC10307832
